Test results taken from US5631222A, “Endothelin-antagonizing peptide” (Kyowa Hakko Kogyo Co., Ltd., priority 1993, dated 1997).
pIC50: −log10 of the molar value. Non-standard residues stand in square brackets, D forms with d. Residues, ends and D or L forms follow the SMILES beside them. NMeI = CC[C@H](C)[C@H](NC)C(=O)O; 2Thi = N[C@@H](Cc1cccs1)C(=O)O; NMeL = CN[C@@H](CC(C)C)C(=O)O; Phg = N[C@H](C(=O)O)c1ccccc1; Nle = CCCC[C@H](N)C(=O)O; Nva = CCC[C@H](N)C(=O)O; Abu = CC[C@H](N)C(=O)O

Target: T1, endothelin receptor (Bos taurus, UniProt P28088)
T1 construct: the suspension was used as a membrane fraction liquid; from tissue; host or cells: bovine cerebellum membrane fraction
T1 sequence (P28088 27-441): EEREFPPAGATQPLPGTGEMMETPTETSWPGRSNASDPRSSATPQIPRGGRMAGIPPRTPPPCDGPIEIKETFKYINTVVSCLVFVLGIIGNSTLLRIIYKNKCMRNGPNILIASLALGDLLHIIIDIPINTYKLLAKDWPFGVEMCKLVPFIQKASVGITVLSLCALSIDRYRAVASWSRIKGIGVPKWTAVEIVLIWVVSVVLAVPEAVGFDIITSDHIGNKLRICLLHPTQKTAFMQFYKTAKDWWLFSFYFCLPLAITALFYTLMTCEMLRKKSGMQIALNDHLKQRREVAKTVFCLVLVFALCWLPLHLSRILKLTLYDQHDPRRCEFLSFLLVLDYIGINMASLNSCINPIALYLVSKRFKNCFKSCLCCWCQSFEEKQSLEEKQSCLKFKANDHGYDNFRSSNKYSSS
Assay: Endothelin receptor-antagonizing activity: inhibition of 125I-endothelin-1 binding to bovine cerebellum membrane fraction
Settings: 125I-Endothelin-1, bovine cerebellum membrane fraction, 25° C. for 2 hours; read-out: IC50: Concentration causing 50% inhibition of endothelin1 binding
Method: Bovine cerebellum tissue was homogenized at 4° C. by using POLYTRON (type PT10/35, manufactured by Kinematic Gmbh Co.) in a buffer solution A (1 mM NaHCO3, 5 mM ethylenediaminetetraacetic acid, 5 μg/ml leupeptin, 5 μg/ml pepstatin A, 40 μM phenylmethylsulfonyl fluoride, pH 8.3).
The obtained suspension was centrifuged for 10 minutes at 8,000 G and 4° C., and the resulting supernatant was centrifuged for 60 minutes at 40,000 G and 4° C. to obtain pellets. The obtained pellets were suspended in a buffer solution A and again centrifuged for 60 minutes at 40,000 G and 4° C. The resulting solid substance was prepared as a suspension containing 2 mg/ml of protein, and the suspension was used as a membrane fraction liquid. […] These mixtures were incubated at 25° C. for 2 hours, and then filtered with a GF/B glass filter (produced by Whatman Co.). […] The inhibition ratio against endothelin receptor binding activity was calculated according to the following equation:
Inhibition ratio (%)=(C-A/C-B)×100
B: Radioactivity in the presence of unlabelled endothelin-1
C: Radioactivity in the absence of both of the compound shown in Table 2 and unlabelled endothelin-1

Structure (SMILES) | pIC50
CC[C@H](NC(=O)[C@@H](NC(=O)[C@H](CC(C)C)NC(=O)[C@H](Cc1c[nH]cn1)NC(=O)[C@H](C)NC(=O)[C@H](Cc1ccccc1)NC(=O)[C@H](Cc1ccc(O)cc1)NC(=O)[C@@H](NC(=O)[C@H](Cc1c[nH]c2ccccc12)NC(=O)[C@H](CC(=O)O)NC(=O)[C@@H]1CCCN1C(=O)[C@H](C)NC(=O)[C@@H](NC(=O)CNC(=O)[C@H](Cc1c[nH]cn1)NC(=O)[C@H](Cc1c[nH]c2ccccc12)NC(=O)[C@H](CC(N)=O)NC(=O)CN)[C@@H](C)O)C(C)C)[C@@H](C)O)C(=O)N[C@H](C(=O)N[C@@H](Cc1c[nH]c2ccccc12)C(=O)O)[C@@H](C)CC [Compound 15, HGlyAsnTrpHisGlyThrAlaProAspTrpValTyrPheAlaHisLeuThrAbuIleTrpOH] (H-GNWHGTAPDWVYFAHLT[Abu]IW-OH) | 9.96
CC[C@H](C)[C@H](NC(=O)[C@H](CC(C)C)N(C)C(=O)[C@@H](NC(=O)[C@H](CC(C)C)NC(=O)[C@H](Cc1c[nH]cn1)NC(=O)[C@H](C)NC(=O)[C@H](Cc1ccccc1)NC(=O)[C@H](Cc1ccc(O)cc1)NC(=O)[C@@H](NC(=O)[C@H](Cc1c[nH]c2ccccc12)NC(=O)[C@H](CC(=O)O)NC(=O)[C@@H]1CCCN1C(=O)[C@H](C)NC(=O)[C@@H](NC(=O)CNC(=O)[C@H](Cc1c[nH]cn1)NC(=O)[C@H](Cc1c[nH]c2ccccc12)NC(=O)[C@H](CC(N)=O)NC(=O)CN)[C@@H](C)O)C(C)C)[C@@H](C)O)C(=O)N[C@@H](Cc1c[nH]c2ccccc12)C(=O)O [Compound 23, HGlyAsnTrpHisGlyThrAlaProAspTrpValTyrPheAlaHisLeuThrMeLeuIleTrpOH] (H-GNWHGTAPDWVYFAHLT[NMeL]IW-OH) | 7.27
CC[C@H](C)[C@H](NC(=O)[C@H]([C@@H](C)CC)N(C)C(=O)[C@@H](NC(=O)[C@H](CC(C)C)NC(=O)[C@H](Cc1c[nH]cn1)NC(=O)[C@H](C)NC(=O)[C@H](Cc1ccccc1)NC(=O)[C@H](Cc1ccc(O)cc1)NC(=O)[C@@H](NC(=O)[C@H](Cc1c[nH]c2ccccc12)NC(=O)[C@H](CC(=O)O)NC(=O)[C@@H]1CCCN1C(=O)[C@H](C)NC(=O)[C@@H](NC(=O)CNC(=O)[C@H](Cc1c[nH]cn1)NC(=O)[C@H](Cc1c[nH]c2ccccc12)NC(=O)[C@H](CC(N)=O)NC(=O)CN)[C@@H](C)O)C(C)C)[C@@H](C)O)C(=O)N[C@@H](Cc1c[nH]c2ccccc12)C(=O)O [Compound 24, HGlyAsnTrpHisGlyThrAlaProAspTrpValTyrPheAlaHisLeuThrMeIleIleTrpOH] (H-GNWHGTAPDWVYFAHLT[NMeI]IW-OH) | 7.30
CC[C@H](C)[C@H](NC(=O)[C@@H](NC(=O)[C@@H](NC(=O)[C@H](CC(C)C)NC(=O)[C@H](Cc1c[nH]cn1)NC(=O)[C@H](C)NC(=O)[C@H](Cc1ccccc1)NC(=O)[C@H](Cc1ccc(O)cc1)NC(=O)[C@@H](NC(=O)[C@H](Cc1c[nH]c2ccccc12)NC(=O)[C@H](CC(=O)O)NC(=O)[C@@H]1CCCN1C(=O)[C@H](C)NC(=O)[C@@H](NC(=O)CNC(=O)[C@H](Cc1c[nH]cn1)NC(=O)[C@H](Cc1c[nH]c2ccccc12)NC(=O)[C@H](CC(N)=O)NC(=O)CN)[C@@H](C)O)C(C)C)[C@@H](C)O)c1ccccc1)C(=O)N[C@@H](Cc1c[nH]c2ccccc12)C(=O)O [Compound 25, HGlyAsnTrpHisGlyThrAlaProAspTrpValTyrPheAlaHisLeuThrPhgIleTrpOH] (H-GNWHGTAPDWVYFAHLT[Phg]IW-OH) | 9.24
CCCC[C@H](NC(=O)[C@@H](NC(=O)[C@H](CC(C)C)NC(=O)[C@H](Cc1c[nH]cn1)NC(=O)[C@H](C)NC(=O)[C@H](Cc1ccccc1)NC(=O)[C@H](Cc1ccc(O)cc1)NC(=O)[C@@H](NC(=O)[C@H](Cc1c[nH]c2ccccc12)NC(=O)[C@H](CC(=O)O)NC(=O)[C@@H]1CCCN1C(=O)[C@H](C)NC(=O)[C@@H](NC(=O)CNC(=O)[C@H](Cc1c[nH]cn1)NC(=O)[C@H](Cc1c[nH]c2ccccc12)NC(=O)[C@H](CC(N)=O)NC(=O)CN)[C@@H](C)O)C(C)C)[C@@H](C)O)C(=O)N[C@H](C(=O)N[C@@H](Cc1c[nH]c2ccccc12)C(=O)O)[C@@H](C)CC [Compound 26, HGlyAsnTrpHisGlyThrAlaProAspTrpValTyrPheAlaHisLeuThrNleIleTrpOH] (H-GNWHGTAPDWVYFAHLT[Nle]IW-OH) | 9.20
CC[C@H](C)[C@H](NC(=O)[C@H](Cc1cccs1)NC(=O)[C@@H](NC(=O)[C@H](CC(C)C)NC(=O)[C@H](Cc1c[nH]cn1)NC(=O)[C@@H](C)NC(=O)[C@H](Cc1ccccc1)NC(=O)[C@H](Cc1ccc(O)cc1)NC(=O)[C@@H](NC(=O)[C@H](Cc1c[nH]c2ccccc12)NC(=O)[C@H](CC(=O)O)NC(=O)[C@@H]1CCCN1C(=O)[C@H](C)NC(=O)[C@@H](NC(=O)CNC(=O)[C@H](Cc1c[nH]cn1)NC(=O)[C@H](Cc1c[nH]c2ccccc12)NC(=O)[C@H](CC(N)=O)NC(=O)CN)[C@@H](C)O)C(C)C)[C@@H](C)O)C(=O)N[C@@H](Cc1c[nH]c2ccccc12)C(=O)O [Compound 27, HGlyAsnTrpHisGlyThrAlaProAspTrpValTyrPheD-AlaHisLeuThrThiIleTrpOH] (H-GNWHGTAPDWVYF[dA]HLT[2Thi]IW-OH) | 8.31
CC[C@H](C)[C@H](NC(=O)[C@H](Cc1cccs1)NC(=O)[C@@H](NC(=O)[C@H](CC(C)C)NC(=O)[C@@H](Cc1c[nH]c2ccccc12)NC(=O)[C@H](C)NC(=O)[C@H](Cc1ccccc1)NC(=O)[C@H](Cc1ccc(O)cc1)NC(=O)[C@@H](NC(=O)[C@H](Cc1c[nH]c2ccccc12)NC(=O)[C@H](CC(=O)O)NC(=O)[C@@H]1CCCN1C(=O)[C@H](C)NC(=O)[C@@H](NC(=O)CNC(=O)[C@H](Cc1c[nH]cn1)NC(=O)[C@H](Cc1c[nH]c2ccccc12)NC(=O)[C@H](CC(N)=O)NC(=O)CN)[C@@H](C)O)C(C)C)[C@@H](C)O)C(=O)N[C@@H](Cc1c[nH]c2ccccc12)C(=O)O [Compound 28, HGlyAsnTrpHisGlyThrAlaProAspTrpValTyrPheAlaD-TrpLeuThrThiIleTrpOH] (H-GNWHGTAPDWVYFA[dW]LT[2Thi]IW-OH) | 7.05
CCC[C@H](NC(=O)[C@H](Cc1c[nH]cn1)NC(=O)[C@H](C)NC(=O)[C@H](Cc1ccccc1)NC(=O)[C@H](Cc1ccc(O)cc1)NC(=O)[C@@H](NC(=O)[C@H](Cc1c[nH]c2ccccc12)NC(=O)[C@H](CC(=O)O)NC(=O)[C@@H]1CCCN1C(=O)[C@H](C)NC(=O)[C@@H](NC(=O)CNC(=O)[C@H](Cc1c[nH]cn1)NC(=O)[C@H](Cc1c[nH]c2ccccc12)NC(=O)[C@H](CC(N)=O)NC(=O)CN)[C@@H](C)O)C(C)C)C(=O)N[C@H](C(=O)N[C@@H](Cc1cccs1)C(=O)N[C@H](C(=O)N[C@@H](Cc1c[nH]c2ccccc12)C(=O)O)[C@@H](C)CC)[C@@H](C)O [Compound 29, HGlyAsnTrpHisGlyThrAlaProAspTrpValTyrPheAlaHisNvaThrThiIleTrpOH] (H-GNWHGTAPDWVYFAH[Nva]T[2Thi]IW-OH) | 9.43
CC[C@H](C)[C@H](NC(=O)[C@H](Cc1cccs1)NC(=O)CNC(=O)[C@H](CC(C)C)NC(=O)[C@H](Cc1c[nH]cn1)NC(=O)[C@H](C)NC(=O)[C@H](Cc1ccccc1)NC(=O)[C@H](Cc1ccc(O)cc1)NC(=O)[C@@H](NC(=O)[C@H](Cc1c[nH]c2ccccc12)NC(=O)[C@H](CC(=O)O)NC(=O)[C@@H]1CCCN1C(=O)[C@H](C)NC(=O)[C@@H](NC(=O)CNC(=O)[C@H](Cc1c[nH]cn1)NC(=O)[C@H](Cc1c[nH]c2ccccc12)NC(=O)[C@H](CC(N)=O)NC(=O)CN)[C@@H](C)O)C(C)C)C(=O)N[C@@H](Cc1c[nH]c2ccccc12)C(=O)O [Compound 30, HGlyAsnTrpHisGlyThrAlaProAspTrpValTyrPheAlaHisLeuGlyThiIleTrpOH] (H-GNWHGTAPDWVYFAHLG[2Thi]IW-OH) | 6.77
CC[C@@H](C)[C@@H](NC(=O)[C@H](Cc1cccs1)NC(=O)[C@@H](NC(=O)[C@H](CC(C)C)NC(=O)[C@H](Cc1c[nH]cn1)NC(=O)[C@H](C)NC(=O)[C@H](Cc1ccccc1)NC(=O)[C@H](Cc1ccc(O)cc1)NC(=O)[C@@H](NC(=O)[C@H](Cc1c[nH]c2ccccc12)NC(=O)[C@H](CC(=O)O)NC(=O)[C@@H]1CCCN1C(=O)[C@H](C)NC(=O)[C@@H](NC(=O)CNC(=O)[C@H](Cc1c[nH]cn1)NC(=O)[C@H](Cc1c[nH]c2ccccc12)NC(=O)[C@H](CC(N)=O)NC(=O)CN)[C@@H](C)O)C(C)C)[C@@H](C)O)C(=O)N[C@@H](Cc1c[nH]c2ccccc12)C(=O)O [Compound 31, HGlyAsnTrpHisGlyThrAlaProAspTrpValTyrPheAlaHisLeuThrThiD-IleTrpOH] (H-GNWHGTAPDWVYFAHLT[2Thi][dI]W-OH) | 6.68
